Data as given in patent US6353004B1, “Peripherally acting anti-pruritic opiates” (Adolor Coporation, priority 1997, dated 2002).

Tests used:
[1] = i.v. administration; cited from earlier work
[2] = system: Compound 48/80-induced scratching; assay: mouse scratch model: antagonism of Compound 48/80-induced scratching; assay type: in vivo, male Swiss albino mice; conditions: s.c.; for Mean % Inhibition of Scratching: Compound 48/80 challenge, scratching counted for 30 min; for antagonism of Compound 48/80-induced scratching (in words): mice
Method: Testing was performed in a mouse scratch model under blind conditions.
Groups of 8-10 male Swiss albino mice (Hilltop Lab Animals, Inc., Scottsdale, Pa.), weighing […], were used in the testing. They were housed under controlled temperature of 23-25° C. Food and water were freely available. Before the experiments, the mice were weighed, put into individual boxes and allowed to acclimate for 30 min.
Vehicle used to dissolve the test compounds: 20% w/w cremophor EL.
100 μl of the vehicle (3-5 doses, n=8-10) was injected s.c. into the back of the neck of mice 20 min. before challenging them with 100 μl of Compound 48/80 (2 mg/ml; […]) injected s.c. into the back of the neck.
To each mouse of a group of 8-10 mice previously subjected to the standard challenge various doses of the compounds, to be tested for anti-pruritic activity, were administered s.c. into the back of the neck.
For each group of 8-10 mice, the mean values for scratching were normalized to relative % antagonism of scratching and then plotted vs. dose of test compounds. Interval estimates of mean A50 were determined by nonlinear regression analysis (Kaleida Graph) and mean % inhibition of scratching was calculated.

Row | Structure (SMILES) | generalized itching, share of patients [1] | Mean % Inhibition of Scratching ([2]; dose 2.5 mg/kg) [%] | Mean % Inhibition of Scratching ([2]; dose 5.0 mg/kg) [%] | Mean % Inhibition of Scratching ([2]; dose 10.0 mg/kg) [%] | antagonism of Compound 48/80-induced scratching (in words) [2] | Mean % Inhibition of Scratching ([2]; dose 1.0 mg/kg) [%]
1 | CN1CC[C@]23c4c5ccc(O)c4O[C@H]2[C@@H](O)C=C[C@H]3[C@H]1C5 [morphine] | about 1% |  |  |  |  | 
2 | Cl.O=C(O)C1(c2ccccc2)CCN(CCC(c2ccccc2)(c2ccccc2)c2ccccn2)CC1 [(1), 1-[3,3-diphenyl-3-(2-pyridyl)propyl]-4-phenyl-4-piperidinecarboxylic acid hydrochloride] |  | 32 | 65 | 83 | antagonized Compound 48/80-induced scratching in a dose-related manner | 
3 | CN(C)C(=O)C(CCN1CCC(O)(c2ccc(Cl)cc2)CC1)(c1ccccc1)c1ccccc1.Cl [(3), reference compound] |  |  |  |  | antagonized Compound 48/80-induced scratching in a dose-related manner | 
4 | OC1(Cc2ccc(Cl)cc2)CCN(CCC(c2ccccc2)(c2ccccc2)c2ccccc2)CC1 [(2), 1-(3,3,3-triphenylpropyl)-4-hydroxy-4-p-chlorobenzylpiperidine] |  | 68 | 94 |  | antagonized Compound 48/80-induced scratching in a dose-related manner | 35
